Assays:
rat [1] = conditions: Prenatal developmental toxicity study, wistar, Inhalation, Whole-Body, dose end: 19 GD
rat [2] = conditions: Subchronic inhalation toxicity, sprague dawley, Whole-Body, dose end: 13 week, group: systemic
rabbit [3] = conditions: Prenatal developmental toxicity study; dutch; Inhalation; Whole-Body; dose end: 18 GD; group: developmental; developmental / developmental malformation / bone / incomplete ossification + developmental / developmental malformation / bone / …
rabbit [4] = conditions: Prenatal developmental toxicity study, new zealand white, Inhalation, Whole-Body, dose end: 18 GD
mouse [5] = conditions: Carcinogenicity, b6c3f1, Oral, Gavage/Intubation, dose end: 2 year, group: systemic
rat [6] = conditions: Carcinogenicity, fischer, Oral, Gavage/Intubation, dose end: 2 year, group: systemic
rabbit [7] = conditions: Subchronic inhalation toxicity, new zealand white, Whole-Body, dose end: 13 week, group: systemic
rat [8] = conditions: Prenatal developmental toxicity study, wistar, Inhalation, Whole-Body, dose end: 15 GD
mouse [9] = conditions: Subchronic oral toxicity in rodents, b6c3f1, Water, dose end: 13 week
rat [10] = conditions: Subchronic oral toxicity in rodents, fischer, Water, dose end: 13 week
rat [11] = conditions: Prenatal developmental toxicity study, wistar, Inhalation, Whole-Body, dose end: 19 GD; remark: listed apart in the source
[12] = group: developmental, developmental / developmental malformation / bone / incomplete ossification + developmental / developmental malformation / bone / knobby + …
[13] = group: maternal, reproductive / reproductive performance / resorptions / resorptions
[14] = group: maternal, reproductive / reproductive performance / resorptions / resorptions + systemic / in life observation / body weight / body weight + systemic…
[15] = systemic / organ weight / spleen / absolute + systemic / organ weight / spleen / relative to body weight
[16] = systemic / organ weight / spleen / absolute + systemic / organ weight / spleen / relative to body weight + systemic / clinical chemistry / …
[17] = group: developmental, developmental / developmental malformation / bone / supernumerary + developmental / developmental malformation / heart / [other] + …
[18] = group: maternal, reproductive / reproductive performance / resorptions / resorptions + systemic / in life observation / body weight / body weight gain + …
[19] = group: maternal, reproductive / reproductive performance / resorptions / resorptions + systemic / in life observation / food consumption / food consumption…
[20] = systemic / in life observation / mortality / mortality + systemic / pathology gross / stomach / ulcer + systemic / pathology gross / testes…
[21] = systemic / in life observation / body weight / body weight
[22] = systemic / in life observation / body weight / body weight + systemic / pathology gross / adrenal gland / enlarged
[23] = systemic / clinical chemistry / cholesterol / cholesterol
[24] = systemic / clinical chemistry / cholesterol / cholesterol + systemic / hematology / erythrocyte (rbc) count differential / erythrocyte (rbc…
[25] = group: developmental, systemic / in life observation / body weight / litter weight
[26] = group: developmental, systemic / in life observation / body weight / litter weight + developmental / developmental malformation / bone / incomplete ossification…
[27] = group: maternal, reproductive / reproductive performance / preimplantation loss / preimplantation loss + reproductive / offspring survival early / live …
[28] = group: maternal, reproductive / reproductive performance / estrous cycle / length
[29] = group: systemic, systemic / in life observation / body weight / body weight gain + systemic / organ weight / testes / absolute + systemic / pathology gross…
[30] = group: maternal, reproductive / reproductive performance / estrous cycle / abnormal + reproductive / reproductive performance / estrous cycle / length
[31] = group: systemic, systemic / clinical chemistry / alkaline phosphatase (alp/alk) / alkaline phosphatase (alp/alk)
[32] = group: systemic, systemic / in life observation / body weight / body weight + systemic / in life observation / body weight / body weight gain + systemic / …
[33] = group: maternal, systemic / organ weight / spleen / relative to body weight

## CCOCCO [2-Ethoxyethanol]
Rat [1]; [12]
  LEL: 150 ppm
  LOAEL: > 649 ppm
  NEL: < 150 ppm
  NOAEL: ≥ 649 ppm
Rat [1]; [13]
  LEL: 150 ppm
  NEL: < 150 ppm
Rat [1]; [14]
  LOAEL: > 649 ppm
  NOAEL: ≥ 649 ppm
Rat [2]; [15]
  LEL: 25 ppm
  NEL: < 25 ppm
Rat [2]; [16]
  LOAEL: > 400 ppm
  NOAEL: ≥ 400 ppm
Rabbit [3]
  LEL: 175 ppm
  LOAEL: > 175 ppm
  NEL: 50 ppm
  NOAEL: ≥ 175 ppm
Rabbit [4]; [17]
  LEL: 160 ppm
  LOAEL: > 617 ppm
  NEL: < 160 ppm
  NOAEL: ≥ 617 ppm
Rabbit [4]; [18]
  LOAEL: > 617 ppm
  NOAEL: ≥ 617 ppm
Rabbit [4]; [19]
  LEL: 160 ppm
  NEL: < 160 ppm
Mouse [5]; [20]
  LOAEL: > 2000 mg/kg/day
  NEL: 500 mg/kg/day
  NOAEL: ≥ 2000 mg/kg/day
Mouse [5]; systemic / pathology gross / testes / reduced size
  LEL: 1000 mg/kg/day
Rat [6]; [21]
  LOAEL: 500 mg/kg/day
  NOAEL: < 500 mg/kg/day
Rat [6]; [22]
  LEL: 500 mg/kg/day
  NEL: < 500 mg/kg/day
Rabbit [7]; [23]
  LEL: 25 ppm
  NEL: < 25 ppm
Rabbit [7]; [24]
  LOAEL: > 400 ppm
  NOAEL: ≥ 400 ppm
Rat [8]; [25]
  LEL: 10 ppm
  NEL: < 10 ppm
Rat [8]; [26]
  LOAEL: > 250 ppm
  NOAEL: ≥ 250 ppm
Rat [8]; [27]
  LEL: 10 ppm
  LOAEL: > 250 ppm
  NEL: < 10 ppm
  NOAEL: ≥ 250 ppm
Mouse [9]; [28]
  LEL: 722 mg/kg/day
  LOAEL: > 11200 mg/kg/day
  NEL: < 722 mg/kg/day
  NOAEL: ≥ 11200 mg/kg/day
Mouse [9]; [29]
  LOAEL: 5120 mg/kg/day
  NOAEL: 2000 mg/kg/day
Mouse [9]; group: systemic, systemic / pathology microscopic / adrenal gland / hypertrophy
  LEL: 2720 mg/kg/day
Mouse [9]; group: systemic, systemic / pathology microscopic / adrenal gland / hypertrophy + systemic / in life observation / body weight / body weight gain + systemic…
  NEL: 1300 mg/kg/day
Rat [10]; [30]
  LEL: 804 mg/kg/day
  LOAEL: > 2060 mg/kg/day
  NEL: 466 mg/kg/day
  NOAEL: ≥ 2060 mg/kg/day
Rat [10]; [31]
  LEL: 109 mg/kg/day
  NEL: < 109 mg/kg/day
Rat [10]; [32]
  LOAEL: 792 mg/kg/day
  NOAEL: 400 mg/kg/day
Rat [11]; [12]
  LEL: 202 ppm
  LOAEL: > 767 ppm
  NEL: < 202 ppm
  NOAEL: ≥ 767 ppm
Rat [11]; [14]
  LOAEL: > 767 ppm
  NOAEL: ≥ 767 ppm
Rat [11]; [33]
  LEL: 202 ppm
  NEL: < 202 ppm
